{"source": "patent US20040039041A1", "about": "“Prevention of development of dyskinesias” (priority 2003, published 2004)", "key": {"[1]": {"tested_on": "C57BL/6J strain male mice", "test": "Locomotor activity during chronic treatment (days 1-8), D-amphetamine sensitization schedule with atipamezole pre-treatment", "type": "in vivo", "procedure": "The effects of atipamezole on the locomotor hyperactivity induced by repeated administration of D-amphetamine were studied in male mice.\n(§1) Experiments were performed with C57BL/6J strain male mice from Jackson Laboratories. Mice were transferred to laboratory at least 2 weeks prior to use. The mice were from 8 to 20 weeks of age at the beginning of an experiment. Groups of 10 mice were housed in standard polypropylene cages (38×22×15 cm) with free access to standard certified pelleted food (RM1 Maintenance Expanded SQC; Special Diet Services, Essex, UK) and water. Ambient temperature was 22±1 C°, and a 12:12 h light/dark cycle was maintained with lights on at 6 A.M. All experiments were carried out between 7 A.M. and 5 P.M. The animal care was performed in accordance with International Council for Laboratory Animal Science (ICLAS) guidelines.\n(§2) D-Amphetamine sulphate (Sigma, St. Louis, Mo., U.S.A.) and atipamezole HCl (Orion Corporation, Orion Pharma, Turku, Finland) were dissolved in saline (0.9% NaCl) and administered subcutaneously (s.c.) in a 5 ml/kg volume.\n(§3) The locomotor activity of the mice was measured in transparent standard polypropylene animal cages (38×22×15 cm) with transparent cover and aspen bedding on the floor. Test cages were placed middle of the photobeam frame system (Photobeam Activity System PAS, Cage Rack, San Diego Instruments, San Diego, Calif.). Computer control unit registered the interruptions of photobeams from 16 individual cages. Three different types of movements were monitored: 1) ambulations (large horizontal movements), 2) fine movements (smaller horizontal movements) and 3) rearings (vertical movements). Locomotor activity was measured at 5-min intervals for 2 h immediately after D-amphetamine or saline administrations.\nD-amphetamine was administered subcutaneously (s.c.) at the dose of 2 mg/kg. Atipamezole was administered s.c. at the dose of 1 mg/kg 20 min before locomotor activity measurement.\nIn the chronic-treatment group mice were administrated during eight days to elicit provoked locomotor hyperactivity to D-amphetamine and the effect of the atipamezole to the locomotor activity. Mice groups in the chronic treatment schedule were saline, saline-amphetamine, amphetamine, atipamezole and atipamezole-amphetamine. A day before experiment, mice were habituated to the test environment. […] At days seven and eight, the produced locomotor hyperactivity and effect of a single exposure of D-amphetamine (saline-amphetamine-group) were analysed. […]\nAll data are presented as mean±SEM. […] Results were analysed separately, because data were collected in separate experiments with different study design. When significance (P<0.05) between treatment groups were found comparisons at each time point (date or min) were analyzed by using LSD post-hoc test."}, "[2]": {"tested_on": "C57BL/6J strain male mice", "test": "Locomotor activity after different drug treatments at day 9 in the chronic treatment groups", "type": "in vivo", "procedure": "as §1, §2, §3\nAt day nine, the effect of different atipamezole and amphetamine administrations to the locomotor activity on the chronic treatment groups were analysed. Used treatments were saline, 1 mg/kg atipamezole, 2 mg/kg D-amphetamine, 0.3 mg/kg atipamezole-2 mg/kg D-amphetamine and 1 mg/kg atipamezole-2 mg/kg D-amphetamine. Chronic treatment groups were saline-, atipamezole-, amphetamine- and atipamezole-amphetamine groups. Chronic groups were treated following schedule in Table 2.\nAll data are presented as mean±SEM. Statistical analysis were performed using SPSS 9.0 for Windows (SPSS, Chicago, Ill.). Separate repeated measures analyses of variance (ANOVA) were performed on each variable for each experiment grouped on time and treatment group. Results were analysed separately, because data were collected in separate experiments with different study design. When significance (P<0.05) between treatment groups were found comparisons at each time point (date or min) were analyzed by using LSD post-hoc test."}}, "data": [{"compound": "CCC1(c2c[nH]cn2)Cc2ccccc2C1", "note": "[Atipamezole, 4-(2-ethyl-2,3-dihydro-1H-inden-2-yl)-1H-imidazole]", "values": [{"measurement": "D-amphetamine-induced locomotion, atipamezole-amphetamine vs amphetamine group", "setting": "[1]; atipamezole 1 mg/kg s.c. 20 min before D-amphetamine 2 mg/kg s.c. over the course of exposure, Day 2 P<0.05, Days 3-8 P<0.001", "value": "decreased significantly D-amphetamine-induced locomotion"}, {"measurement": "locomotor activity, atipamezole pre-treatment before saline challenge vs saline group", "setting": "[1]; atipamezole 1 mg/kg s.c. daily for six days, 20 min before saline, Day 8, P=0.43", "value": "not statistical significant difference"}, {"measurement": "development and expression of sensitization (motor overactivity)", "setting": "[1]; given chronically in combination with D-amphetamine, in mice (summary statement)", "value": "reduced the development and expression of sensitization"}, {"measurement": "D-amphetamine-induced locomotor hyperactivity in sensitized mice", "setting": "[2]; Day 9, chronic amphetamine group, atipamezole 0.3 mg/kg 20 min before D-amphetamine 2 mg/kg, P=0.005", "value": "clearly attenuated the D-amphetamine-induced locomotor hyperactivity"}, {"measurement": "D-amphetamine-induced locomotor hyperactivity in sensitized mice", "setting": "[2]; Day 9, chronic amphetamine group, atipamezole 1 mg/kg 20 min before D-amphetamine 2 mg/kg, P<0.001", "value": "clearly attenuated the D-amphetamine-induced locomotor hyperactivity"}, {"measurement": "locomotor activity before saline and D-amphetamine challenge after chronic atipamezole", "setting": "[2]; Day 9, chronic atipamezole group (1 mg/kg days 1-8)", "value": "elevation was not statistically significant"}, {"measurement": "D-amphetamine induced locomotion, group atipamezole-amphetamine vs amphetamine-amphetamine", "setting": "[2]; Day 9, chronic atipamezole-amphetamine group given atipamezole 1 mg/kg 20 min before D-amphetamine 2 mg/kg, P<0.001", "value": "decreased significantly D-amphetamine induced locomotion"}, {"measurement": "locomotor activity with D-amphetamine only at Day 9 after chronic atipamezole-amphetamine, compared to amphetamine-amphetamine group (development of sensitization)", "setting": "[2]; Day 9, chronic atipamezole-amphetamine group given only D-amphetamine 2 mg/kg, P-0.026", "value": "true reduction in the development of sensitization"}, {"measurement": "locomotor activity, atipamezole pre-treatment before D-amphetamine challenge compared D-amphetamine alone", "setting": "[2]; Day 9, chronic saline group, atipamezole 0.3 mg/kg 20 min before D-amphetamine 2 mg/kg, P=0.016", "value": "amplified locomotor activity"}, {"measurement": "locomotor activity, atipamezole pre-treatment before D-amphetamine challenge compared D-amphetamine alone", "setting": "[2]; Day 9, chronic saline group, atipamezole 1 mg/kg 20 min before D-amphetamine 2 mg/kg, P=0.364", "value": "had no effect"}, {"measurement": "total ambulatory activity counts, atipamezole pre-treatment alone", "setting": "[2]; Day 9, chronic saline group, atipamezole 1 mg/kg 20 min before saline, P=0.81", "value": "did not alter total ambulatory activity counts"}]}, {"compound": "C[C@H](N)Cc1ccccc1", "note": "[D-amphetamine]", "values": [{"measurement": "ambulatory activity compared to saline group", "setting": "[1]; D-amphetamine 2 mg/kg s.c., six repeated administrations (days 1-4, 7, 8), 2-h counts, group amphetamine vs saline and saline-amphetamine at Day 8 P<0.001", "value": "progressive enhance in ambulatory activity"}, {"measurement": "ambulatory sensitization during repeated administration", "setting": "[2]; Day 9, chronic amphetamine group, D-amphetamine 2 mg/kg, P<0.001", "value": "developed strong ambulatory sensitization"}, {"measurement": "locomotor activity after D-amphetamine", "setting": "[2]; Day 9, chronic saline group, D-amphetamine 2 mg/kg s.c., P<0.001 vs saline, not same level as amphetamine group (P<0.001)", "value": "significantly enhanced locomotor activity"}]}]}
